# Test results reported in ChEMBL document CHEMBL1909281, “FDA-approved drug labeling for the study of drug-induced liver injury” (Drug Discov Today, 2011).
# Tested on: Hepatotoxicity
# Assay: FDA Liver Toxicity Knowledge Base Benchmark Dataset (LTKB-BD) drugs of most concern for DILI
# Conditions: not given
row,SMILES,LTKB_BD DILI severity score
1,CC(CCc1ccccc1)NCC(O)c1ccc(O)c(C(N)=O)c1 (configuration not stated) [LABETALOL],8
2,Nc1ccn([C@@H]2CS[C@H](CO)O2)c(=O)n1 [LAMIVUDINE],8
3,CS(=O)(=O)CCNCc1ccc(-c2ccc3ncnc(Nc4ccc(OCc5cccc(F)c5)c(Cl)c4)c3c2)o1 [LAPATINIB],8
4,Cc1oncc1C(=O)Nc1ccc(C(F)(F)F)cc1 [LEFLUNOMIDE],8
5,Cc1nnc(C(C)C)n1[C@@H]1C[C@H]2CC[C@@H](C1)N2CC[C@H](NC(=O)C1CCC(F)(F)CC1)c1ccccc1 [MARAVIROC],3
6,CN(Cc1cnc2nc(N)nc(N)c2n1)c1ccc(C(=O)N[C@@H](CCC(=O)O)C(=O)O)cc1 [METHOTREXATE],3
7,C[C@](N)(Cc1ccc(O)c(O)c1)C(=O)O [METHYLDOPA],8
8,O=C1CC[C@@]2(O)[C@H]3Cc4ccc(O)c5c4[C@@]2(CCN3CC2CC2)[C@H]1O5 [NALTREXONE],3
9,CCc1nn(CCCN2CCN(c3cccc(Cl)c3)CC2)c(=O)n1CCOc1ccccc1 [NEFAZODONE],8
10,Cc1ccnc2c1NC(=O)c1cccnc1N2C1CC1 [NEVIRAPINE],8
11,CCCCCCCCCCC[C@@H](C[C@@H]1OC(=O)[C@H]1CCCCCC)OC(=O)[C@H](CC(C)C)NC=O [ORLISTAT],8
12,C[C@]12COC(=O)C[C@@H]1CC[C@@H]1[C@@H]2CC[C@@]2(C)[C@H]1CC[C@]2(C)O [OXANDROLONE],8
13,C[C@]12C/C(=C/O)C(=O)C[C@@H]1CC[C@@H]1[C@@H]2CC[C@@]2(C)[C@H]1CC[C@]2(C)O [OXYMETHOLONE],8
14,CO[C@H]1/C=C/O[C@@]2(C)Oc3c(C)c(O)c4c(O)c(c(/C=N/N5CCN(C)CC5)c(O)c4c3C2=O)NC(=O)/C(C)=C\C=C\[C@H](C)[C@H](O)[C@@H](C)[C@@H](O)[C@@H](C)[C@H](OC(C)=O)[C@@H]1C [RIFAMPIN],8
15,CC(C)c1nc(CN(C)C(=O)N[C@H](C(=O)N[C@@H](Cc2ccccc2)C[C@H](O)[C@H](Cc2ccccc2)NC(=O)OCc2cncs2)C(C)C)cs1 [RITONAVIR],5
16,Cc1cn([C@H]2C=C[C@@H](CO)O2)c(=O)[nH]c1=O [STAVUDINE],8
17,CN(N=O)C(=O)N[C@@H](C=O)[C@@H](O)[C@H](O)[C@H](O)CO [STREPTOZOCIN],3
18,Cc1cc(NS(=O)(=O)c2ccc(N)cc2)no1 [SULFAMETHOXAZOLE],7
19,CCN(CC)CCNC(=O)c1c(C)[nH]c(/C=C2\C(=O)Nc3ccc(F)cc32)c1C [SUNITINIB],8
20,C[C@H](Cn1cnc2c(N)ncnc21)OCP(=O)(O)O [TENOFOVIR ANHYDROUS],8
21,CN(C/C=C/C#CC(C)(C)C)Cc1cccc2ccccc12 [TERBINAFINE],8
22,COc1cc(C(=O)NS(=O)(=O)c2ccccc2C)ccc1Cc1cn(C)c2ccc(NC(=O)OC3CCCC3)cc12 [ZAFIRLUKAST],8
23,Cc1cn([C@H]2C[C@H](N=[N+]=[N-])[C@@H](CO)O2)c(=O)[nH]c1=O [ZIDOVUDINE],8
24,CC(c1cc2ccccc2s1)N(O)C(N)=O (configuration not stated) [ZILEUTON],5

# Same assay, conditions: Liver
row,SMILES,LTKB_BD DILI severity score
1,Sc1ncnc2nc[nH]c12 [MERCAPTOPURINE ANHYDROUS],8
2,O=C1CN(/N=C/c2ccc([N+](=O)[O-])o2)C(=O)N1 [NITROFURANTOIN],8
3,CNCCC=C1c2ccccc2CCc2ccccc21 [NORTRIPTYLINE],8
4,CCCc1cc(=O)[nH]c(=S)[nH]1 [PROPYLTHIOURACIL],8
5,Nc1c2c(nc3ccccc13)CCCC2 [TACRINE],7
6,Clc1ccccc1CN1CCc2sccc2C1 [TICLOPIDINE],4
7,Cc1ccc(C(=O)c2cc(O)c(O)c([N+](=O)[O-])c2)cc1 [TOLCAPONE],8
8,Nc1ccn([C@H]2CC[C@@H](CO)O2)c(=O)n1 [ZALCITABINE],8
